This assay addresses T1, human zDHHC15 (Homo sapiens, UniProt Q96MV8).
T1 construct: expressed in transfected cells; host or cells: HEK293T
T1 sequence (Q96MV8 1-337): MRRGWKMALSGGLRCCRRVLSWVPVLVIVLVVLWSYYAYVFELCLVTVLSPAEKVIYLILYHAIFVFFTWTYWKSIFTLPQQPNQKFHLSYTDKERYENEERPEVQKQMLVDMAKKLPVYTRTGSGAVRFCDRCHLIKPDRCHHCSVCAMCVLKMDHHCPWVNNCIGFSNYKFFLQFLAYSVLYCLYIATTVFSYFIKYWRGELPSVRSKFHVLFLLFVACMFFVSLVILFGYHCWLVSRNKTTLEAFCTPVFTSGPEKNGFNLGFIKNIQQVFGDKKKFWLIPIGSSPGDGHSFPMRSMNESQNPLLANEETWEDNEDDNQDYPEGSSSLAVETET
The assay is described as follows: GFP-SNAP25b S-acylation in HEK293T cells co-expressing zDHHC15. The format is cell-based. As to conditions: HEK-293T; in cellulo HEK293T, compound 25 μM; read-out: SNAP25 S-acylation inhibition (%), zDHHC15. The protocol:
We next investigated whether the identified compounds were effective at inhibiting zDHHC enzyme isoforms other than zDHHC2 (Fig. 6 and Table 1). […] We therefore treated cells coexpressing GFP-SNAP25 and each of these zDHHC enzymes with 25 μM of TTZ-1 and TTZ-2 and studied the subsequent effect on SNAP25 S-acylation. […] Importantly, the level of enzyme expression was unaffected by the compounds. […] As any major differences in the expression levels of the different enzymes could in theory contribute to the apparent differential effects of TTZ-1 and TTZ-2, we directly compared the expression of zDHHC2, zDHHC3, zDHHC7, zDHHC15, and zDHHC17 when transfected in HEK293T cells together with GFP-SNAP25.
Figure 6 Activity of TTZ-1 and TTZ-2 against SNAP25 S-acylation by human zDHHC2, zDHHC3, zDHHC7, zDHHC15, and zDHHC17 expressed in mammalian cells.A–E, HEK293T cells were transfected with a plasmid encoding GFP-SNAP25b together with either a control plasmid pEF-BOS-HA (pEF) or a plasmid encoding either HA-tagged human zDHHC2 (zD2) (A), zDHHC3 (zD3) (B), zDHHC7 (zD7) (C), zDHHC15 (zD15) (D), or zDHHC17 (zD17) (E) for 24 h. […] Three independent experiments were performed either in duplicate or in triplicate, and the quantification data were gathered on the graphs below each set of membranes. […]

What is called inhibition is the relative decrease from the control value, in per cent. Consider `O=C(Nc1cccc2c1OC(c1nnn[nH]1)CN2)c1ccc(OCCCCc2ccccc2)cc1` (centres unmarked) [TTZ-2, N-(2-(1H-Tetrazol-5-yl)-3,4-dihydro-2H-benzo[b][1,4]oxazin-8-yl)-4-(4-phenylbutoxy)benzamide], for which the inhibition at 25 µM is 93 ± 6%.

Take `CCCCCCCOc1ccc(C(=O)Nc2cccc3c2OC(c2nnn[nH]2)CN3)cc1` (centres unmarked) [TTZ-1, N-(2-(1H-Tetrazol-5-yl)-3,4-dihydro-2H-benzo[b][1,4]oxazin-8-yl)-4-(heptyloxy)benzamide]: the inhibition at 25 µM amounted to 112 ± 6%.

Source of the values: publication PMC9558053, “Development of a novel high-throughput screen for the identification of new inhibitors of protein S-acylation” (The Journal of Biological Chemistry, 2022).
